{
  "source": "patent EP0261362A2",
  "about": "“Ubidecarenone as a keloid remedy” (Eisai Co., Ltd., priority 1986, dated 1988)",
  "assay_type_in_all_cases": "in vivo",
  "key": {"[1]": {"tested_on": "skin", "assay": "Photosensitization test (Adjuvant & Strip method)", "settings": "Induction: 10% acetone", "excerpt": "(§1) The safety of percutaneous administration of ubidecarenone is high, and skin irritation due to ubidecarenone is minor. For example, the results of primary skin irritation, accumulative irritation, eyelid irritation, phototoxis, sensitization, photosensitization, and patch tests are as shown in Table l."}, "[2]": {"tested_on": "skin", "assay": "Accumulative skin irritation test", "settings": "Concn. 1%, solvent Squalane", "excerpt": "as §1"}, "[3]": {"tested_on": "skin", "assay": "Phototoxis test", "settings": "Concn. 1% and 10%, solvent Squalane", "excerpt": "as §1"}, "[4]": {"tested_on": "eyelid", "assay": "Eyelid irritation test", "settings": "Concn. 1%, solvent Squalane", "excerpt": "as §1"}, "[5]": {"tested_on": "skin", "assay": "Patch test", "settings": "Concn. 1%, solvent Squalane", "excerpt": "as §1"}, "[6]": {"tested_on": "skin", "assay": "Sensitization test (Adjuvant & Patch method)", "settings": "Induction: 5% acetone", "excerpt": "as §1"}, "[7]": {"tested_on": "skin", "assay": "Primary skin irritation test", "settings": "Concn. 1%, solvent Squalane", "excerpt": "as §1"}},
  "data": [
    {"smiles": "COC1=C(OC)C(=O)C(C/C=C(\\C)CC/C=C(\\C)CC/C=C(\\C)CC/C=C(\\C)CC/C=C(\\C)CC/C=C(\\C)CC/C=C(\\C)CC/C=C(\\C)CC/C=C(\\C)CCC=C(C)C)=C(C)C1=O", "note": "[ubidecarenone]", "values": [
      {"measurement": "Photosensitivization Challenge, result", "setting": "[1]; challenge 0.5 in acetone", "value": "0/5"},
      {"measurement": "Photosensitivization Challenge, result", "setting": "[1]; challenge 1 in acetone", "value": "0/5"},
      {"measurement": "Photosensitivization Challenge, result", "setting": "[1]; challenge 2 in acetone", "value": "0/5"},
      {"measurement": "Photosensitivization Challenge, result", "setting": "[1]; challenge 5 in acetone", "value": "0/5"},
      {"measurement": "Photosensitivization Challenge, result", "setting": "[1]; challenge 10% in acetone", "value": "0/5"},
      {"measurement": "Photosensitivization Challenge, conclusion", "setting": "[1]; challenge 10% to 0.5 in acetone", "value": "lowly photosensitized"},
      {"measurement": "Accumulative skin irritation, result", "setting": "[2]", "value": 0.3},
      {"measurement": "Phototoxis, conclusion", "setting": "[3]", "value": "lowly phototoxic"},
      {"measurement": "Eyelid irritation, conclusion", "setting": "[4]", "value": "lowly irritative"},
      {"measurement": "Patch test, conclusion", "setting": "[5]", "value": "lowly irritative"},
      {"measurement": "Patch test, result", "setting": "[5]", "value": "0/54"},
      {"measurement": "Sensitization Challenge, result", "setting": "[6]; challenge 1% in acetone", "value": "0/10"},
      {"measurement": "Sensitization Challenge, conclusion", "setting": "[6]; challenge 5% and 1% in acetone", "value": "lowly sensitized"},
      {"measurement": "Sensitization Challenge, result", "setting": "[6]; challenge 5% in acetone", "value": "0/10"},
      {"measurement": "Primary skin irritation, conclusion", "setting": "[7]", "value": "lowly irritative"},
      {"measurement": "Primary skin irritation, result", "setting": "[7]", "value": 0.1}
    ]}
  ]
}
